Measured values taken from ChEMBL document CHEMBL1909046, “DrugMatrix in vitro pharmacology data”.

Assays:
Substance-K receptor = target: T1, Substance-K receptor (Homo sapiens, UniProt P21452); type: cell membranes, CHO, Membrane; conditions: cho; note: in other assays of this panel Not Active means under 50% inhibition at 10 µM
T1 sequence (P21452 whole entry): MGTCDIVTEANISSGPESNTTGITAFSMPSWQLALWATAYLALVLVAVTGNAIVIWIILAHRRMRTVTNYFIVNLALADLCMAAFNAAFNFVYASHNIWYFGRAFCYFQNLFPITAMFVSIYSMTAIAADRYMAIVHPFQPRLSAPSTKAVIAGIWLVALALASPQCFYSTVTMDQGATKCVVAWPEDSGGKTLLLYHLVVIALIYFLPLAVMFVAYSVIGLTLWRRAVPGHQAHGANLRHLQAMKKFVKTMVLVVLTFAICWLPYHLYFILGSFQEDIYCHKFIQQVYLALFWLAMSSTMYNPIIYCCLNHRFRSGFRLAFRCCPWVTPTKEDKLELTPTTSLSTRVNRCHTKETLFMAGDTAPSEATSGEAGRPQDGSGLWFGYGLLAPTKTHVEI

[1] = target: T2, 5-hydroxytryptamine receptor 1A (Rattus norvegicus, UniProt P19327); type: cell membranes, CHO-K1, Membrane; conditions: for Ki: read-out: Ki; for all read-outs here: in other assays of this panel Not Active means under 50% inhibition at 10 µM
T2 sequence (P19327 whole entry): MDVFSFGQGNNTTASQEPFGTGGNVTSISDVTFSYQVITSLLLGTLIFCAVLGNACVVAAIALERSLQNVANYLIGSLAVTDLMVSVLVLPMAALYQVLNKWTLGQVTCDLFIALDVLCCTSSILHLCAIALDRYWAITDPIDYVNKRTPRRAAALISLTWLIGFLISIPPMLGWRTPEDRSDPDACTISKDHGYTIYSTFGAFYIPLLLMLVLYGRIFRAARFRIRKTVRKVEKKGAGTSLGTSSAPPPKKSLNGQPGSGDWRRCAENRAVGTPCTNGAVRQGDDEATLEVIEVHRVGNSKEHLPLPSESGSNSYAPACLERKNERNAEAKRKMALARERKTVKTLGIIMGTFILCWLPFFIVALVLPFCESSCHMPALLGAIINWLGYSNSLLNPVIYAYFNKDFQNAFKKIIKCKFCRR

[2] = target: Mitogen-activated protein kinase 1 (Homo sapiens, UniProt P28482); assay: DRUGMATRIX: Protein Serine/Threonine Kinase, ERK2 enzyme inhibition (substrate: Myelin Basic Protein); set-up: species or system Escherichia coli; conditions: Not Active = under 50% inhibition at 10 µM
Sequence of Mitogen-activated protein kinase 1 (P28482 whole entry): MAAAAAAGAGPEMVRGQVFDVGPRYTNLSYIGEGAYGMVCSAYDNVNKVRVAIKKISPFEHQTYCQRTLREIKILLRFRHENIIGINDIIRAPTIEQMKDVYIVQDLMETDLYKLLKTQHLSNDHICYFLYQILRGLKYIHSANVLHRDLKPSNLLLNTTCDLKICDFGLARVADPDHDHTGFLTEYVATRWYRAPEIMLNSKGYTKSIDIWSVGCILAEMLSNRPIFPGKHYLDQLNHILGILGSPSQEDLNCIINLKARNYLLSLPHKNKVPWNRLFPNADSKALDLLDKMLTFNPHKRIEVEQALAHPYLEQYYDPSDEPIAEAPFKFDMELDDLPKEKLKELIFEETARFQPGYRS

[3] = DRUGMATRIX: Glutamate, NMDA, Agonism radioligand binding (ligand: [3H] CGP-39653); type: cell membranes, Rattus norvegicus, Wistar, Cerebral cortex, Membrane; conditions: Not Active = under 50% inhibition at 10 µM
[4] = target: T3, Cysteinyl leukotriene receptor 1 (Homo sapiens, UniProt Q9Y271); type: cell membranes, Membrane; conditions: cho-k1; note: in other assays of this panel Not Active means under 50% inhibition at 10 µM
T3 sequence (Q9Y271 whole entry): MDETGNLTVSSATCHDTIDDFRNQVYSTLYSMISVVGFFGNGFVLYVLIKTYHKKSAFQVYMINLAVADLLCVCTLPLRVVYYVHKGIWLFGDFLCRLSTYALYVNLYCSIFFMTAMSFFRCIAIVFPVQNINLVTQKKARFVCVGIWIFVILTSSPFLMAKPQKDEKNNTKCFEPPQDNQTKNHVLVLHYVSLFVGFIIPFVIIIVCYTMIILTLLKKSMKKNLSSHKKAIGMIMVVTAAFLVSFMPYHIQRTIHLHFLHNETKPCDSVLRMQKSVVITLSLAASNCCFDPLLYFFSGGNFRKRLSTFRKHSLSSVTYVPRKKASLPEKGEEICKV

SMILES	IC50 (Substance-K receptor)	IC50 ([1]; cho-k1)	IC50 [2]	IC50 [3]	Ki [3]	IC50 [4]	IC50 ([1]; read-out: IC50) [nM]	Ki [1] [nM]
O=C(c1ccccc1C(F)(F)F)N1CCC(Cc2ccccc2)CC1	Not Active	Not Active	Not Active	Not Active	Not Active	Not Active	–	–
O=C/C=C/c1ccccc1	Not Active	Not Active	Not Active	Not Active	Not Active	Not Active	–	–
Nc1ccc2c3c(cccc13)C(=O)NC2=O	Not Active	Not Active	Not Active	Not Active	Not Active	Not Active	–	–
COc1ccc(C(=O)N2CCCC2=O)cc1	Not Active	Not Active	Not Active	Not Active	Not Active	Not Active	–	–
O=c1cnn([C@@H]2O[C@H](CO)[C@@H](O)[C@H]2O)c(=O)[nH]1 [6-AZAURIDINE]	Not Active	Not Active	Not Active	Not Active	Not Active	Not Active	–	–
CC[C@H](C)[C@H]1O[C@]2(C=C[C@@H]1C)C[C@@H]1C[C@@H](C/C=C(\C)[C@@H](O[C@H]3C[C@H](OC)[C@@H](O[C@H]4C[C@H](OC)[C@@H](O)[C@H](C)O4)[C@H](C)O3)[C@@H](C)/C=C/C=C3\CO[C@@H]4[C@H](O)C(C)=C[C@@H](C(=O)O1)[C@]34O)O2.CO[C@H]1C[C@H](O[C@H]2[C@H](C)O[C@@H](O[C@@H]3/C(C)=C/C[C@@H]4C[C@@H](C[C@]5(C=C[C@H](C)[C@@H](C(C)C)O5)O4)OC(=O)[C@@H]4C=C(C)[C@@H](O)[C@H]5OC/C(=C\C=C\[C@@H]3C)[C@]54O)C[C@@H]2OC)O[C@@H](C)[C@@H]1O [ABAMECTIN]	Not Active	Not Active	Not Active	Not Active	Not Active	Not Active	–	–
NCCCC(O)(P(=O)(O)O)P(=O)(O)O [ALENDRONIC ACID]	Not Active	Not Active	Not Active	Not Active	Not Active	Not Active	–	–
Cc1nnc2n1-c1ccc(Cl)cc1C(c1ccccc1)=NC2 [ALPRAZOLAM]	Not Active	Not Active	Not Active	Not Active	Not Active	Not Active	–	–
Cn1c(=O)c2[nH]cnc2n(C)c1=O.Cn1c(=O)c2[nH]cnc2n(C)c1=O.NCCN [AMINOPHYLLINE]	Not Active	Not Active	Not Active	Not Active	Not Active	Not Active	–	–
CCC1(CCC(C)C)C(=O)NC(=O)NC1=O [AMOBARBITAL]	Not Active	Not Active	Not Active	Not Active	Not Active	Not Active	–	–
CC1(C)S[C@@H]2[C@H](NC(=O)[C@H](N)c3ccccc3)C(=O)N2[C@H]1C(=O)O [AMPICILLIN]	Not Active	Not Active	Not Active	Not Active	Not Active	Not Active	–	–
COc1ccc(C2C(=O)c3ccccc3C2=O)cc1 [ANISINDIONE]	Not Active	Not Active	Not Active	Not Active	Not Active	Not Active	–	–
O=C1O[C@H]([C@@H](O)CO)C(O)=C1O [ASCORBIC ACID]	Not Active	Not Active	Not Active	Not Active	Not Active	Not Active	–	–
CN1[C@@H]2CC[C@H]1C[C@@H](OC(=O)C(CO)c1ccccc1)C2 (some centres not stated) [ATROPINE]	Not Active	Not Active	Not Active	Not Active	Not Active	Not Active	–	–
CC(C(=O)O)c1ccc2oc(-c3ccc(Cl)cc3)nc2c1 (configuration not stated) [BENOXAPROFEN]	Not Active	Not Active	Not Active	Not Active	Not Active	Not Active	–	–
COc1ccc2cc3[n+](cc2c1OC)CCc1cc2c(cc1-3)OCO2.[Cl-] [BERBERINE CHLORIDE]	Not Active	Not Active	Not Active	Not Active	Not Active	Not Active	–	–
O=C(O)CCNC(=O)c1ccccc1 [BETAMIPRON]	Not Active	Not Active	Not Active	Not Active	Not Active	Not Active	–	–
CC(=O)Oc1ccc(C(c2ccc(OC(C)=O)cc2)c2ccccn2)cc1 [BISACODYL]	Not Active	Not Active	Not Active	Not Active	Not Active	Not Active	–	–
Cc1cc2c(OCC(CNC(C)(C)C)OC(=O)c3ccccc3)cccc2[nH]1 (configuration not stated) [BOPINDOLOL]	Not Active	–	Not Active	Not Active	Not Active	Not Active	267	153
Brc1c(NC2=NCCN2)ccc2nccnc12 [BRIMONIDINE]	Not Active	–	Not Active	Not Active	Not Active	Not Active	2550	1460
CN(C)[C@@H]1C(O)=C(C(N)=O)C(=O)[C@@]2(O)C(O)=C3C(=O)c4c(O)ccc(Cl)c4[C@@](C)(O)[C@H]3C[C@@H]12 [CHLORTETRACYCLINE]	Not Active	Not Active	Not Active	Not Active	Not Active	Not Active	–	–
CN/C(=N\CCSCc1nc[nH]c1C)NC#N [CIMETIDINE]	Not Active	Not Active	Not Active	Not Active	Not Active	Not Active	–	–
COc1cc(N)c(Cl)cc1C(=O)NC1CCN(CCCOc2ccc(F)cc2)CC1OC (configuration not stated) [CISAPRIDE]	Not Active	–	Not Active	Not Active	Not Active	Not Active	2830	1620
CCC(=O)O[C@]1(C(=O)CCl)[C@@H](C)C[C@H]2[C@@H]3CCC4=CC(=O)C=C[C@]4(C)[C@@]3(F)[C@@H](O)C[C@@]21C [CLOBETASOL PROPIONATE]	Not Active	Not Active	Not Active	Not Active	Not Active	Not Active	–	–
O=C1CN=C(c2ccccc2Cl)c2cc([N+](=O)[O-])ccc2N1 [CLONAZEPAM]	Not Active	Not Active	Not Active	Not Active	Not Active	Not Active	–	–
Nc1ccn([C@@H]2O[C@H](CO)[C@@H](O)[C@@H]2O)c(=O)n1 [CYTARABINE]	Not Active	Not Active	Not Active	Not Active	Not Active	Not Active	–	–
C[C@@H]1C[C@H]2[C@@H]3CCC4=CC(=O)C=C[C@]4(C)[C@@]3(F)[C@@H](O)C[C@]2(C)[C@H]1C(=O)CO [DESOXIMETASONE]	Not Active	Not Active	Not Active	Not Active	Not Active	Not Active	–	–
C[C@@H]1C[C@H]2[C@@H]3CCC4=CC(=O)C=C[C@]4(C)[C@@]3(F)[C@@H](O)C[C@]2(C)[C@@]1(O)C(=O)CO [DEXAMETHASONE]	Not Active	Not Active	Not Active	Not Active	Not Active	Not Active	–	–
CN(C)CC[C@@H](c1ccc(Cl)cc1)c1ccccn1 [DEXCHLORPHENIRAMINE]	Not Active	Not Active	Not Active	Not Active	Not Active	Not Active	–	–
